This is an account of results in US20170073337A1, “DIHYDROTHIAZINE AND DIHYDROOXAZINE DERIVATIVES HAVING BACE1 INHIBITORY ACTIVITY” (Shionogi & Co., Ltd., priority 2014, published 2017).

Values after ≈ are worked out from the molar mass of the structure shown. Where two headings read alike, the source gives them in different places. Bounds are passed on as bounds.

The nature of one series: Metabolic stability test. Particulars: human liver microsomes, 37° C., 30 minutes, NADPH. It counts as in vitro ADME. The protocol:
Using a commercially available pooled human liver microsomes, a compound of the present invention was reacted for a constant time, a remaining rate was calculated by comparing a reacted sample and an unreacted sample, thereby, a degree of metabolism in liver was assessed.
A reaction was performed (oxidative reaction) at 37° C. for 0 minute or 30 minutes in the presence of 1 mmol/L NADPH in 0.2 mL of a buffer (60 mmol/L Tris-HCl pH 7.4, 150 mmol/L potassium chloride, 10 mmol/L magnesium chloride) containing 0.5 mg protein/mL of human liver microsomes. After the reaction, 50 μL of the reaction solution was added to 100 μL of a methanol/acetonltrile=1/1 (v/v), mixed and centrifuged at 3000 rpm for 15 minutes. The compound of the present invention in the supernatant was quantified by LC/MS/MS or solid phase extraction (SPE)/MS, and a remaining amount of the compound of the present invention after the reaction area calculated, letting a compound amount at 0 minute reaction time to be 100%.
For orientation: Liver microsomes are vesicles of endoplasmic reticulum, rich in cytochrome P450 enzymes.

Series [1] relates to Aβ production in neuroblastoma SH-SY5Y cells (SH/APPwt). The series is described as follows: β-amyloid (Aβ) production inhibitory effect in cell: 384-well. In kind it is cell-based. Particulars: Homo sapiens, Assay format 384-well. The protocol:
Neuroblastoma SH-SY5Y cells (SH/APPwt) with human wild-type β-APT excessively expressed therein were prepared at 4×10^5 cells/mL, and 50 μl portions thereof were inoculated into each well of a 384-well culture plate (Corning) added 0.5 μl of the test compound of the present invention (DMSO solution). The final DMSO concentration was 1%, and the amount of the cell culture was 50 μl. After the incubation was performed for 21 hours from the cell seeding, 5 μl of the culture supernatant was collected from each fraction. The amount of the Aβ in each fraction was measured.
The Aβ amount was measured as follows. 5 μl of a homogeneous time resolved fluoresrenee (HTRF) measurement reagent (Amyloid β1-40 peptide; CIS bio international) and 5 μl of the culture supernatant were put into a 384′well plate (a black plate: Corning) and mixed with each other, and then left standing overnight at 4° C. while the light was shielded. Then, the fluorescence intensity (620 nm and 665 nm) was measured with EnViston (Perkin Elmer life sciences).

A further series deals with T1, CYP1A2 (Homo sapiens, UniProt P05177).
T1 construct: The commercially available pooled human liver microsomes are used as an enzyme resource; from tissue; host or cells: pooled human liver microsomes
T1 sequence (P05177 1-516): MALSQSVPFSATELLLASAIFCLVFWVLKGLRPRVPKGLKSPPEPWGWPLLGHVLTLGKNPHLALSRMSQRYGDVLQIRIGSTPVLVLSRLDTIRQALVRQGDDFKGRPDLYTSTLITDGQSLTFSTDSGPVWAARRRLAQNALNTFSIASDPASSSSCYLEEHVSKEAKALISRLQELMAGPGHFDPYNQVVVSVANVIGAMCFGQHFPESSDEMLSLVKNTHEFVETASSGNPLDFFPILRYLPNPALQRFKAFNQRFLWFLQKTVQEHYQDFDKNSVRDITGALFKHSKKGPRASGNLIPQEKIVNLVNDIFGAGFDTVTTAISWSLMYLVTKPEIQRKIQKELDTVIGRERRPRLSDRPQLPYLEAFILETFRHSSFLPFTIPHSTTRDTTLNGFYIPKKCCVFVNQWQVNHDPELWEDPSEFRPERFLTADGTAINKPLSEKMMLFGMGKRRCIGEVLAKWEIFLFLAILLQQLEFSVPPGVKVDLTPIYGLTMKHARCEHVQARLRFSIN
In words: CYP inhibition test (CYP1A2). It counts as in vitro ADME. Particulars: pooled human liver microsomes; 7-ethoxyresorufin O-deethylation. The source says:
(§1) The CYP inhibition test is a test to assess the inhibitory effect of a compound of the present invention towards typical substrate metabolism reactions on CYP enzymes in human liver microsomes. The marker reactions on human main five CYP enzymes (CYP1A2, 2C9, 2C19, 2D6, and 3A4) are used as follows: 7-ethoxyresorufin O-deethylation (CYP1A2), tolbutamide methyl-hydroxylation (CYP2C9), mephenytoin 4′-hydroxylation (CYP2C19), dextromethorphan O-demethylation (CYP2D6), and terfenadine hydroxylation (CYP3A4). The commercially available pooled human liver microsomes are used as an enzyme resource.
(§2) The reaction conditions were as follows: substrate, 0.5 μmol/L ethoxyresorufin (CYP1A2), 100 μmol/L tolbutamide (CYP2C9), 50 μmol/L, S-mephenytoin (CYP2C19), 5 μmol/L dextromethorphan (CYP2D6), 1 μmol/L terfenadine (CYP3A4): reaction time, 15 minutes: reaction temperature, 37° C.; enzyme, pooled human liver microsomes 0.2 mg protein/mL; concentrations of the compound of the present invention, 1, 5, 10, 20 μmol/L (four points).
(§3) Five kinds of substrates, human liver microsomes, and a compound solution of the present invention in […] Hepes buffer were added to a 96-well plate at the composition as described above as a reaction solution. NADPH as a cofactor was added to this 96-well plate in order to initiate metabolism reactions. After the incubation at 37° C.for […], a methanol/acetonitrile=1/1 (v/v) solution was added to stop the reaction. After the centrifugation at 3000 rpm for 15 minutes, resorufin (CYP1A2 metabolite) in the supernatant was quantified by a fluorescent plate reader, and hydroxytolbutamide (CYP2C9 metabolite), 4′-hydroxymephenytoin (CYP2C19 metabolite), dextrorphan (CYP2D6 metabolite), and terfenadine alcohol metabolite (CYP3A4 metabolite) in the supernatant were quantified by LC/MS/MS.
(§4) The sample adding DMSO to a reaction system instead of compound of the present invention solution was adopted as a control (100%) because DMSO was used as a solvent to dissolve a compound of the present invention. Remaining activity (%) was calculated at each concentration of a compound of the present invention, and IC50 value was calculated by reverse presumption by a logistic model using a concentration and an inhibition rate.

In another series the target is T2, CYP2D6 (Homo sapiens, UniProt P10635).
T2 construct: The commercially available pooled human liver microsomes are used as an enzyme resource; from tissue; host or cells: pooled human liver microsomes
The series is described as follows: CYP inhibition test (CYP2D6). In kind it is in vitro ADME. The settings on record: pooled human liver microsomes; dextromethorphan O-demethylation.
Excerpt: as §1, §2, §3, §4

Another series can be described thus: Solubility test. It counts as physicochemical. The settings on record: for solubility kinetic at 1 h: kinetic from dmso stock; for solubility kinetic at 16 h: solubility in JP 2nd fluid B, 1% DMSO, *2: shaken for 1 hour at room temperature. The protocol:
A 10 mmol/L solution of the compound was prepared with DMSO, and 2 μL of the compound of the present invention solution was added, respectively, to 198 μL of JP 1st fluid (water was added to 2.0 g of sodium chloride and 7.0 ml, of hydrochloric acid to reach 1000 mL) and JP 2nd fluid (See Table 4). The mixture was left standing for 16 hours at 25° C. or shaken for 1 hour at ruom temperature, and the mixture was vacuum-filtered. The […] was ten or one hundred-fold diluted with metbanol/water=1/1 (v/v) or MeCN/MeOH/H2O(=1/1/2), and the compound concent ration in the filtrate was measured with LC/MS or solid phase extraction (SPE)/MS by the absolute calibration method.

The target in a further series is T3, CYP2C19 (Homo sapiens, UniProt P33261).
T3 construct: The commercially available pooled human liver microsomes are used as an enzyme resource; from tissue; host or cells: pooled human liver microsomes
The series is described as follows: CYP inhibition test (CYP2C19). It counts as in vitro ADME. The settings on record: pooled human liver microsomes; mephenytoin 4′-hydroxylation.
Excerpt: as §1, §2, §3, §4

The target in a further series is T4, Recombinant human BACE1 (Homo sapiens, UniProt P56817).
T4 construct: purchased R&D Systems
In words: Assay of BACE1 inhibitory activity: 384-well. In kind it is biochemical. Particulars: Assay format 384-well. The protocol: 5 μL of substrate peptide solution (Biotin-XSEVNLDAEFRHDSGC-Eu: X=ε-amino-n-capronic acid, Eu=Europium eryplate) was added to each well of 384-well plate (a black plate: Corning), and after addition of 0.1 μl of the compound of the present invention (DMSO solution) and 5 μl of Recombinant human BACE1 (R&D Systems), the reaction mixture was incubated at 25° C. for 2 hours. The substrate peptide was synthesized by reacting Cryptate TBPCOOH mono SMP (CIS bio international) with Biotin-XSEVNLDAEFRHDSGC (Peptide Institute, Inc.).
After the incubation for reaction, 10 μl of 8.0 μg/ml Streptavidin-XL665 (CIS bio International) dissolved in phosphate buffer (150 mmol/L K2HPO4-KH2PO4, pH 7.0, 0.008% Triton X-100, 0.8 mol/L KF) was added to each well and left stand at 25° C. for 30 minutes.

For another series, the target named is T5, CYP2C9 (Homo sapiens, UniProt P11712).
T5 construct: The commercially available pooled human liver microsomes are used as an enzyme resource; from tissue; host or cells: pooled human liver microsomes
The series is described as follows: CYP inhibition test (CYP2C9). In kind it is in vitro ADME. The settings on record: pooled human liver microsomes; tolbutamide methyl-hydroxylation.
Excerpt: as §1, §2, §3, §4

Another series deals with T6, CYP3A4 (Homo sapiens, UniProt P08684).
T6 construct: The commercially available pooled human liver microsomes are used as an enzyme resource; from tissue; host or cells: pooled human liver microsomes
In words: CYP inhibition test (CYP3A4). It counts as in vitro ADME. The settings on record: pooled human liver microsomes; terfenadine hydroxylation.
Excerpt: as §1, §2, §3, §4

[2] abbreviates: JP 1st fluid, pH 1.2, simulated gastric fluid, read-out: JP1.
[3] abbreviates: JP 2nd fluid B, pH 6.8, aqueous buffer, read-out: JP2_μM.

T3 sequence (P33261 whole entry): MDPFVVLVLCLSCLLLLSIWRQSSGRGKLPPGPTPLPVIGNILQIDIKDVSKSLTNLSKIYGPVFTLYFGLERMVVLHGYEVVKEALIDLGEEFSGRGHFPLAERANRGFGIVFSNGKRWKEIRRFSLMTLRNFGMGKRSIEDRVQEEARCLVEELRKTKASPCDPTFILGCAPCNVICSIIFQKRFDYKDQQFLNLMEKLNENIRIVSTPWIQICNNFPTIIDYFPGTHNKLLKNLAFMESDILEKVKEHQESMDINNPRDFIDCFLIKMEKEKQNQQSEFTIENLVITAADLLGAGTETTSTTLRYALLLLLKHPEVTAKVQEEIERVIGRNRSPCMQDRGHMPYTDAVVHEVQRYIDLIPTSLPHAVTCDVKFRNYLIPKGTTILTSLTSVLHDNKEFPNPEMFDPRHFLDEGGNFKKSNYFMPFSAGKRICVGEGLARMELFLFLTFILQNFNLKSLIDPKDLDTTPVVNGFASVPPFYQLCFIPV
T6 sequence (P08684 whole entry): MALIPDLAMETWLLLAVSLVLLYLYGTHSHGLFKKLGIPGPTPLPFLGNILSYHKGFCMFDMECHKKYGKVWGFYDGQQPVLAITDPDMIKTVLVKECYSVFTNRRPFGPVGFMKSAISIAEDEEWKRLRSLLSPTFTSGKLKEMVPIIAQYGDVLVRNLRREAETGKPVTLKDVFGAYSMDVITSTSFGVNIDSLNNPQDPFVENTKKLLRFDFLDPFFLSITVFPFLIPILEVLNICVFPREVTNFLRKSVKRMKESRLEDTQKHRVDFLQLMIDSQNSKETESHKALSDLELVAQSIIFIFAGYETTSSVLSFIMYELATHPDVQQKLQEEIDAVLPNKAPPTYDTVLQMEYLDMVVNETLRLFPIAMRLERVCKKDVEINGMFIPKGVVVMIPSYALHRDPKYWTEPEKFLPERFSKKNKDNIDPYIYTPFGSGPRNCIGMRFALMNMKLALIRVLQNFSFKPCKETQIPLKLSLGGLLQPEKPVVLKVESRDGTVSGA
T5 sequence (P11712 whole entry): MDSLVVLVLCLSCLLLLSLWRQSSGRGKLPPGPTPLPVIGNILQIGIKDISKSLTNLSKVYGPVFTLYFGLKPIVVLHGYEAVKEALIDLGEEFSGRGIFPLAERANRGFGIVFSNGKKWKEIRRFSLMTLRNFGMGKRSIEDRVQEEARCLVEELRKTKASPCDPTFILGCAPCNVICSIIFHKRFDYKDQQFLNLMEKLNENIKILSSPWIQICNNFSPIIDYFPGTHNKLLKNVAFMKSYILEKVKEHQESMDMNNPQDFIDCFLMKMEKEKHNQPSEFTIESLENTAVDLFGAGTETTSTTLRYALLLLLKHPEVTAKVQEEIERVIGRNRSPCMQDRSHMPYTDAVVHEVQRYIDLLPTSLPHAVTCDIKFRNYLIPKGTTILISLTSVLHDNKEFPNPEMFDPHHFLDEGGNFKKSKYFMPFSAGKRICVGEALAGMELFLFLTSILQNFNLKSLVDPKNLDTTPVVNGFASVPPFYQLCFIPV
T4 sequence (P56817 46-501): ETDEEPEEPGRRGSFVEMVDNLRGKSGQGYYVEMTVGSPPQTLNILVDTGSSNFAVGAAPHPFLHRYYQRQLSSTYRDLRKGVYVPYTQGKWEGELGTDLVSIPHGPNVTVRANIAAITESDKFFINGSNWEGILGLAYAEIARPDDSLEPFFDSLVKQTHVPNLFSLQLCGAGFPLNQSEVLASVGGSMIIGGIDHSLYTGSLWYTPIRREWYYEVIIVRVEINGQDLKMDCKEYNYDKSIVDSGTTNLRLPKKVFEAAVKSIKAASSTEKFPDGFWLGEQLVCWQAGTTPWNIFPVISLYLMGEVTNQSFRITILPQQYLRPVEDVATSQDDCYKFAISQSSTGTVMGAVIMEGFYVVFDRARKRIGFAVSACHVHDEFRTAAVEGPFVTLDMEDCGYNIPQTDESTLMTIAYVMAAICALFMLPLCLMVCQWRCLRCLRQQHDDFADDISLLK
T2 sequence (P10635 whole entry): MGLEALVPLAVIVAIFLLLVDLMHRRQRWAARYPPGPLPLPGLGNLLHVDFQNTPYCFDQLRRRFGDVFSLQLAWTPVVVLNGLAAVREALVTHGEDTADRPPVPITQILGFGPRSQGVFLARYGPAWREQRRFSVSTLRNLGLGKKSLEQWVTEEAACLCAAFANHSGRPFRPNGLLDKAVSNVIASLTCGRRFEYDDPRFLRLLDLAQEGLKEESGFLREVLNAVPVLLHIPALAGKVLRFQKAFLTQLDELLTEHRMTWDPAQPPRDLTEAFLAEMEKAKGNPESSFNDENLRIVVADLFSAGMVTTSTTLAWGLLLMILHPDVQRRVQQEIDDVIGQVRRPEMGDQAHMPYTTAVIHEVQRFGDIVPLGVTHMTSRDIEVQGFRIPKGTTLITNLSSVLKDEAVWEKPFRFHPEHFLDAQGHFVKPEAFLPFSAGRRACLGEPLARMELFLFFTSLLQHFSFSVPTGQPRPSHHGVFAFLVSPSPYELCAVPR

For the compound `C[C@H]1SC(N)=N[C@](C)(c2cccc(NC(=O)c3ccc(C#N)cn3)c2)[C@H]1F` [Compound I-102], the remaining % in the series “Metabolic stability test” is 78.1%. For the same compound, the IC50 in series [1] is 0.0016 µM; at CYP1A2, not below 20 µM; on CYP2D6, not below 20 µM; at CYP2C19, not below 20 µM; on Recombinant human BACE1, 0.0234 µM; against CYP2C9, not below 20 µM. The IC50 against CYP3A4 was not below 20 µM. Further, the solubility kinetic at 1 h in “Solubility test” (setting [2]) was more than 50 µM. For the same compound, the solubility kinetic at 16 h in the series “Solubility test” (read-out: JP2_μM) was more than 50.0 µM.

As to `C[C@H]1SC(N)=N[C@](C)(c2cc(NC(=O)c3ncc(C#N)cc3F)ccc2F)[C@H]1F` [Compound I-110], in the series “Metabolic stability test”, the remaining % is on record as 81.1%. Also, the IC50 in series [1] was 0.0011 µM; against CYP1A2 it was not below 20 µM; on CYP2D6, not below 10 µM; against CYP2C19, not below 20 µM; at Recombinant human BACE1 it was 0.0225 µM; against CYP2C9 it was not below 10 µM. This compound had a half-inhibitory concentration (IC50) at CYP3A4 not below 20 µM. In addition, the values for the solubility kinetic at 1 h in “Solubility test” (setting [2]) and in the series “Solubility test” (setting [3]) were 42.1 µM (≈ 17.7 µg/mL) and more than 50 µM, respectively.

Regarding `Cc1cc(C#N)cnc1C(=O)Nc1ccc(F)c([C@@]2(C)N=C(N)O[C@H](C3(F)CC3)[C@@H]2F)c1` [Compound I-99], the remaining % in “Metabolic stability test” stood at 89.4%. The IC50 is 0.00099 µM in [1]; not below 20 µM against CYP1A2; not below 10 µM at CYP2D6; not below 20 µM at CYP2C19; 0.0245 µM on Recombinant human BACE1; not below 10 µM at CYP2C9. For the same compound, the IC50 on CYP3A4 is not below 20 µM. Besides, the solubility kinetic at 1 h in “Solubility test” (setting [2]) is more than 50 µM. Besides, the solubility kinetic at 16 h in the series “Solubility test” (read-out: JP2_μM) was more than 50.0 µM.

In turn, `[2H]C([2H])([2H])Oc1cnc(C(=O)Nc2cccc([C@@]3(C)N=C(N)S[C@H](C)[C@@H]3F)c2)cn1` [Compound I-114] came in with a remaining % in the series “Metabolic stability test” of 80.5%. The IC50 in [1] was 0.0051 µM; against CYP1A2, not below 20 µM; on CYP2D6 it was not below 20 µM; against CYP2C19 it was not below 20 µM; at Recombinant human BACE1 it was 0.0415 µM; at CYP2C9, not below 10 µM. Also, at CYP3A4, the IC50 was not below 20 µM. In addition, the solubility kinetic at 1 h in “Solubility test” (setting [2]) is more than 50 µM. In addition, the solubility kinetic at 16 h in the series “Solubility test” (read-out: JP2_μM) is more than 50.0 µM.

Regarding `Cc1cc(C#N)cnc1C(=O)Nc1cccc([C@@]2(C)N=C(N)S[C@H](C)[C@@H]2F)c1` [Compound I-105], the remaining % in the series “Metabolic stability test” was 56.8%. Moreover, the IC50 in series [1] was 0.00074 µM; against CYP1A2, not below 20 µM; against CYP2D6 it was not below 20 µM; against CYP2C19, not below 20 µM; on Recombinant human BACE1, 0.0305 µM; on CYP2C9 it was not below 20 µM. Besides, the IC50 at CYP3A4 was not below 20 µM. Besides, the solubility kinetic at 1 h in the series “Solubility test” (setting [2]) was 47.3 µM (≈ 18.8 µg/mL); in “Solubility test” (setting [3]), more than 50 µM.

For `C[C@H]1SC(N)=N[C@](C)(c2cccc(NC(=O)c3ccc(OCF)cn3)c2)[C@H]1F` [Compound I-107], the remaining % in the series “Metabolic stability test” amounted to 64.2%. In addition, the IC50 in series [1] was 0.00042 µM; against CYP1A2, not below 20 µM; against CYP2D6 it was not below 20 µM; on CYP2C19, not below 20 µM; on Recombinant human BACE1, 0.0235 µM; at CYP2C9, not below 10 µM. At CYP3A4, the IC50 is not below 20 µM. Besides, the solubility kinetic at 1 h is 33.5 µM (≈ 13.6 µg/mL) in “Solubility test” (setting [2]) and more than 50 µM in “Solubility test” (setting [3]).

For orientation: IC50 means the concentration that gives 50% inhibition.
